Laboratory results from patent EP0403048A2, “Medicated compositions containing sucralfate and processes for their production” (WARNER-LAMBERT COMPANY, priority 1989, dated 1990).
Like-named read-outs stand apart in the source and are kept apart here.

Columns and labels:
[1] = in vitro comparative gelling experiment in 0.1N hydrochloric acid; format: physicochemical
[2] = tested on: Escherichia coli, A.T.T.C. accession number 8739; assay: in-vitro antimicrobial activity, zone of inhibition on agar plates; format: cell-based; settings: agar plate well, incubated at 37° C. for 24 hours

## Sucralfate [Example 7]
[1]; sample preparation for the antimicrobial test: 15ml of 0.1N hydrochloric acid in sterile test tube
  gel formation: gelled
[2]
  ZONE OF INHIBITION(CM): Negative

## Sucralfate [Example 1]
[1]; 15ml of 0.1N hydrochloric acid
  supernatant left after gelling: essentially clear
[1]; composition in 15ml of 0.1N hydrochloric acid, Vortex-Genie speed 3 for 10-15 seconds
  gelled in (time to gel): about 10 seconds

## O=C(O)c1ccccc1 [Example 10, Benzoic Acid]
[1]
  gel formation: did not gel

## Cl [Example 12, 0.1N Hydrochloric Acid]
[1]
  gel formation: gelled
